The values below come from ChEMBL document CHEMBL1201862, “PubChem BioAssay data set” (2004).

Test systems include A549; PC-3; K562; MDA-MB-435; SF-539; NCI-H226; OVCAR-8; ACHN; SK-OV-3; 786-0; SR; T47D; NCI-H460; LOX IMVI; SN12C; MCF7; Hs-578T; EKVX; DU-145; A498.
What all share (assay): growth of human tumour cells (NCI), 48 h

Molecules are shown by their SMILES.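 Protocol summary: plate cells (96-well), add compound at 5 concentrations, incubate 48 h, interpolate endpoints linearly. The concentration for 50% growth inhibition is given as GI50.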 The source made the active and inactive calls. Cut-off read from the data, not from the text of the source: active = GI50 up to about 1.1 µM and inactive = higher.

On to `COP1(=O)OCc2cnccc2O1` (stereo unspecified), for which the GI50 in the assay with A549, with PC-3, with K562, in the assay with MDA-MB-435, with SF-539 and in the assay with NCI-H226 was > 100 µM (inactive) in each case. Besides, the GI50 with OVCAR-8, in the assay on ACHN, in the assay on SK-OV-3, with 786-0, in the assay with SR and with T47D was > 100 µM (inactive) each time. Besides, the GI50 in the assay with NCI-H460, in the assay on LOX IMVI, in the assay with SN12C, with MCF7, in the assay with Hs-578T and in the assay with EKVX was > 100 µM (inactive) throughout.

With `Cc1ccc([N+](=O)[O-])cc1NC(=O)C(=O)C1CCC2=C(Sc3ccccc3N2)C1=O` (stereo unspecified), the GI50 was > 100 µM (inactive) in the assay on A549; 53 µM (inactive) with PC-3; > 100 µM (inactive) in the assay on MDA-MB-435; 37.5 µM (inactive) in the assay with SF-539; 58.7 µM (inactive) in the assay with NCI-H226; 66.8 µM (inactive) with OVCAR-8. The GI50 in the assay with ACHN, with SK-OV-3, in the assay on 786-0, in the assay with NCI-H460, in the assay on DU-145 and in the assay with LOX IMVI was > 100 µM (inactive) each time. In addition, the GI50 with SN12C, with MCF7, in the assay with Hs-578T and with EKVX was > 100 µM (inactive) each time.

In the case of `CCCCC/C=C\C=C\CCCCCCCCC(=O)OC`, the GI50 in the assay with A549, in the assay on PC-3, with K562, in the assay with SF-539, in the assay with NCI-H226 and with OVCAR-8 was > 100 µM (inactive) in each case. The GI50 with ACHN, with SK-OV-3, in the assay with 786-0, in the assay on SR, in the assay on T47D and in the assay on NCI-H460 was > 100 µM (inactive) each time. Besides, the GI50 in the assay on A498 was > 100 µM (inactive); with DU-145, > 100 µM (inactive); in the assay on LOX IMVI it was 29.8 µM (inactive); in the assay on SN12C, > 100 µM (inactive); in the assay on MCF7, > 100 µM (inactive); in the assay on Hs-578T it was > 100 µM (inactive). The GI50 in the assay on EKVX was > 100 µM (inactive).

As for `Cc1cc(-c2nc3ccccc3s2)ccc1NS(=O)(=O)O`, the GI50 was > 5.82 µM (inactive) with A549; 4.65 µM (inactive) in the assay with K562; > 7.08 µM (inactive) in the assay on MDA-MB-435; 0.0508 µM (active) in the assay on SF-539; > 39.9 µM (inactive) in the assay with NCI-H226; > 4.85 µM (inactive) in the assay on OVCAR-8. Further, the GI50 with ACHN is > 7.78 µM (inactive); in the assay on SK-OV-3, > 33.5 µM (inactive); in the assay with 786-0 it was > 8.85 µM (inactive); in the assay on SR, 4.34 µM (inactive); with A498, 65.9 µM (inactive); in the assay with DU-145, > 22.2 µM (inactive). Moreover, the GI50 with LOX IMVI was > 4.65 µM (inactive); in the assay on SN12C, > 5.92 µM (inactive); in the assay on MCF7 it was < 0.0382 µM (active); with Hs-578T, > 6.28 µM (inactive).

Consider `O=c1[nH]c2ccccc2nc1CBr`, for which the GI50 is 14.4 µM (inactive) in the assay on A549; 12.6 µM (inactive) in the assay with PC-3; 2.24 µM (inactive) in the assay with K562; 12.3 µM (inactive) with MDA-MB-435; 9.23 µM (inactive) in the assay with SF-539; 15.8 µM (inactive) in the assay with NCI-H226. For the same compound, the GI50 in the assay with OVCAR-8 is 13.8 µM (inactive); in the assay with ACHN, 12.3 µM (inactive); with SK-OV-3, 21.5 µM (inactive); in the assay on 786-0 it was 2.02 µM (inactive); in the assay with SR it was 0.415 µM (active); in the assay with T47D it was 12.5 µM (inactive). Also, the GI50 with NCI-H460 was 11.4 µM (inactive); with A498, 21.8 µM (inactive); in the assay on DU-145 it was 19.2 µM (inactive); in the assay on LOX IMVI it was 0.912 µM (active); in the assay with SN12C, 9.38 µM (inactive); with Hs-578T it was 12.1 µM (inactive). For the same compound, the GI50 in the assay with EKVX was 3.3 µM (inactive).

Regarding `Cc1c(/C=N\NC(=S)N(C)CCN(C)C(=S)N/N=C\c2c(C)n(C)n(-c3ccccc3)c2=O)c(=O)n(-c2ccccc2)n1C`, the GI50 in the assay with A549, in the assay with PC-3, in the assay with MDA-MB-435, in the assay with SF-539, in the assay with NCI-H226 and in the assay on ACHN was > 100 µM (inactive) in each case. For the same compound, the GI50 with SK-OV-3 is > 100 µM (inactive); in the assay on 786-0, > 100 µM (inactive); in the assay with SR, 35.3 µM (inactive); with T47D, > 100 µM (inactive); in the assay with NCI-H460, > 100 µM (inactive); in the assay with A498 it was > 100 µM (inactive). The GI50 in the assay with DU-145, in the assay on Hs-578T and in the assay on EKVX was > 100 µM (inactive) each time.

On to `CC(O)c1nc(C#N)c(N)o1` (stereo unspecified), for which the GI50 with A549, in the assay with PC-3, in the assay on K562, in the assay on SF-539, in the assay on NCI-H226 and in the assay on OVCAR-8 was > 100 µM (inactive) each time. The GI50 in the assay with ACHN, with SK-OV-3, in the assay with 786-0, with T47D, with A498 and in the assay with DU-145 was > 100 µM (inactive) throughout. For the same compound, the GI50 with LOX IMVI, in the assay on SN12C, with MCF7, in the assay on Hs-578T and in the assay with EKVX was > 100 µM (inactive) throughout.

As for `O=c1[nH]/c(=C/c2ccc(OCc3ccccc3)cn2)c(=O)[nH]/c1=C/c1ccc(Cl)cc1`, the GI50 was > 84.9 µM (inactive) in the assay on A549; 0.497 µM (active) in the assay with K562; 0.21 µM (active) in the assay with MDA-MB-435; 3.08 µM (inactive) with SF-539; 35.1 µM (inactive) in the assay on NCI-H226; > 100 µM (inactive) with OVCAR-8. Further, the GI50 was 4.24 µM (inactive) in the assay on ACHN; 4.47 µM (inactive) in the assay on SK-OV-3; 1.83 µM (inactive) in the assay with 786-0; 0.301 µM (active) with SR; > 100 µM (inactive) in the assay on T47D; 1.79 µM (inactive) with NCI-H460. The GI50 was 0.7 µM (active) in the assay on A498; > 23.9 µM (inactive) with DU-145; > 22.1 µM (inactive) in the assay with LOX IMVI; 48.3 µM (inactive) in the assay on SN12C; 0.546 µM (active) in the assay on MCF7; 0.804 µM (active) in the assay on Hs-578T. The GI50 in the assay with EKVX was > 100 µM (inactive).

For the compound `CC(=O)NNc1nc(C)c(C(/C=C/c2ccc3c(c2)OCO3)=N/NC(=O)c2ccncc2)s1`, the GI50 with A549, with PC-3, with K562, in the assay with MDA-MB-435, in the assay with SF-539 and in the assay on NCI-H226 was > 100 µM (inactive) in each case. The GI50 with OVCAR-8, with ACHN, with SK-OV-3, in the assay on 786-0, with SR and in the assay with T47D was > 100 µM (inactive) each time. For the same compound, the GI50 with NCI-H460, with A498, in the assay on LOX IMVI, in the assay on SN12C, with MCF7 and in the assay on Hs-578T was > 100 µM (inactive) each time. Moreover, the GI50 in the assay on EKVX was 62.5 µM (inactive).

With `O=[N+]([O-])c1cc(Cl)ccc1S(=O)(=O)c1cc(Cl)cc2c1NCCC2`, the GI50 with A549 is 52 µM (inactive); in the assay with PC-3 it was 69.8 µM (inactive); in the assay on K562, 24.5 µM (inactive); in the assay on MDA-MB-435, 39.6 µM (inactive); with SF-539, > 100 µM (inactive); with NCI-H226, 39.3 µM (inactive). In addition, the GI50 with OVCAR-8 is 56.6 µM (inactive); in the assay on ACHN, 40.9 µM (inactive); in the assay with SK-OV-3, > 100 µM (inactive); in the assay with 786-0 it was > 100 µM (inactive); in the assay on SR, 53.5 µM (inactive); in the assay on NCI-H460, 55.1 µM (inactive). Moreover, the GI50 with A498 is > 100 µM (inactive); with DU-145, > 100 µM (inactive); with LOX IMVI, 58.5 µM (inactive); in the assay on SN12C it was > 100 µM (inactive); with MCF7 it was 37.8 µM (inactive); in the assay on Hs-578T, 95.1 µM (inactive). In the assay with EKVX, the GI50 is 85.7 µM (inactive).

Consider `CCOC(=O)C(=Cc1[nH]c2ccccc2c1-c1c[nH]c2ccccc12)C(=O)OCC`, for which the GI50 was 16.6 µM (inactive) with A549; 10.3 µM (inactive) in the assay on PC-3; 4.12 µM (inactive) in the assay on K562; 5.96 µM (inactive) in the assay with MDA-MB-435; 18.5 µM (inactive) in the assay with SF-539; 14 µM (inactive) in the assay with NCI-H226. The GI50 was 11.3 µM (inactive) with OVCAR-8; 12.2 µM (inactive) in the assay with ACHN; 20.3 µM (inactive) with SK-OV-3; 2.75 µM (inactive) with 786-0; 3.13 µM (inactive) in the assay on SR; 12.6 µM (inactive) with NCI-H460. Also, the GI50 in the assay on A498 is 14.5 µM (inactive); with DU-145 it was 14.1 µM (inactive); in the assay on LOX IMVI, 12.7 µM (inactive); in the assay with SN12C it was 15 µM (inactive); with MCF7 it was 4.71 µM (inactive); in the assay on Hs-578T, 29.9 µM (inactive). For the same compound, in the assay with EKVX, the GI50 was 16.1 µM (inactive).
